Assay results as given in ChEMBL document CHEMBL1255533, “PKI-179: an orally efficacious dual phosphatidylinositol-3-kinase (PI3K)/mammalian target of rapamycin (mTOR) inhibitor” (Bioorg Med Chem Lett, 2010).
Activity calls are given as the source filed them. The calls are words filed in the database; no cut-off is given here.

What was measured:
[1] = test system: MDA-MB-361; assay: Antiproliferative activity against human MDA-MB-361 cells; format: functional, cell-based
[2] = target: Phosphatidylinositol 4,5-bisphosphate 3-kinase catalytic subunit alpha isoform (Homo sapiens, UniProt P42336); assay: Inhibition of PI3K-alpha
[3] = test system: PC-3; assay: Antiproliferative activity against human PC3 cells; format: functional, cell-based
[4] = target: Serine/threonine-protein kinase mTOR (Homo sapiens, UniProt P42345); assay: Inhibition of mTOR
[5] = target: Phosphatidylinositol 4,5-bisphosphate 3-kinase catalytic subunit gamma isoform (Homo sapiens, UniProt P48736); assay: Inhibition of PI3K-gamma
[6] = target: T1, Cytochrome P450 2B6 (Homo sapiens, UniProt P20813); assay: Inhibition of CYP2B6; format: ADME
T1 sequence (P20813 whole entry): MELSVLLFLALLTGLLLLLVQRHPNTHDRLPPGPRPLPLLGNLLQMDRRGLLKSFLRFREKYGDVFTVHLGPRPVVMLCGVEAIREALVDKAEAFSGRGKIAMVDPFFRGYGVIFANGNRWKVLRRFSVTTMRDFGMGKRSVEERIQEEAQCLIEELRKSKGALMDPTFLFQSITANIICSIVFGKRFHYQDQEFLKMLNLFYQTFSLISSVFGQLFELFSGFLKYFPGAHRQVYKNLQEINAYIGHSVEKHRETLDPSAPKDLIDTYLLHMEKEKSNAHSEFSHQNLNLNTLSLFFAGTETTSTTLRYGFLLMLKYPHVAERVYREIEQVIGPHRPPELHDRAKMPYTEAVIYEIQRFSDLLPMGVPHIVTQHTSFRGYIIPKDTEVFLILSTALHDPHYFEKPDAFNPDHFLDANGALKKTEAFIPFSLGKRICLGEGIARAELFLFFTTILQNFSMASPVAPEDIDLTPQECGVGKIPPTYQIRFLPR

[7] = test system: MDA-MB-361; assay: Induction of apoptosis in human MDA-MB-361 cells assessed as PARP cleavage after 4 hrs; format: functional, cell-based
[8] = test system: MDA-MB-361; assay: Antitumor activity against human MDA-MB-361 cells xenografted in mouse assessed as inhibition tumor growth at 10 mg/kg, po qd; format: functional, organism-based; parameters: dose 10 mg/kg
[9] = target: T2, Cytochrome P450 1A2 (Homo sapiens, UniProt P05177); assay: Inhibition of CYP1A2; format: ADME
T2 sequence (P05177 whole entry): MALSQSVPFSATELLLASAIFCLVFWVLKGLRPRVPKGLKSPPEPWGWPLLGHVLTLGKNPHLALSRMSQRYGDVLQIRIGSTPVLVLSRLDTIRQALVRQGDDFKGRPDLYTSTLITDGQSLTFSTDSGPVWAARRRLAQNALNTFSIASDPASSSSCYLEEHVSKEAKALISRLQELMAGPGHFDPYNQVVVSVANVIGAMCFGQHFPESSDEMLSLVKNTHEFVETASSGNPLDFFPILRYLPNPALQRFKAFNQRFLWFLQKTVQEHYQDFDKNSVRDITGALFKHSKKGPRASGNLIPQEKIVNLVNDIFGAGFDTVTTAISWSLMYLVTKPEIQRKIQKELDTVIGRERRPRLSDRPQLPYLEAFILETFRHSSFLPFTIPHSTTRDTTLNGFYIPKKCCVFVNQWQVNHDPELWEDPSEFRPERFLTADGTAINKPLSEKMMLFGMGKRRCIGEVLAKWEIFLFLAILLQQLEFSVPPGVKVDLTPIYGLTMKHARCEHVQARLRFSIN

[10] = target: T3, Cytochrome P450 2C8 (Homo sapiens, UniProt P10632); assay: Inhibition of CYP2C8; format: ADME
T3 sequence (P10632 whole entry): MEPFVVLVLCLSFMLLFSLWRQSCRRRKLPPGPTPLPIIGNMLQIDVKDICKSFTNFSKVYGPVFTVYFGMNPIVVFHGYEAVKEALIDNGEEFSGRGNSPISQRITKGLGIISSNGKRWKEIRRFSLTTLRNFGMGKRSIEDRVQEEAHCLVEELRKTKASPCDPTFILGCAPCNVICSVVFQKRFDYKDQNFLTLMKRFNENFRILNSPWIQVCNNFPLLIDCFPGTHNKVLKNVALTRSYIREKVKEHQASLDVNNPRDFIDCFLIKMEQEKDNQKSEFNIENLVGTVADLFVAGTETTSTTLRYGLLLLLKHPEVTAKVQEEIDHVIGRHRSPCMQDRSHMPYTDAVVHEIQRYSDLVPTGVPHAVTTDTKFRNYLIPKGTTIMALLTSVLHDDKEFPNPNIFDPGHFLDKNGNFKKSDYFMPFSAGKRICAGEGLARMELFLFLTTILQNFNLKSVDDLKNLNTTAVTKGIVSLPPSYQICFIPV

[11] = Inhibition of PI3K-alpha […] mutant
[12] = target: Phosphatidylinositol 4,5-bisphosphate 3-kinase catalytic subunit alpha isoform (Homo sapiens, UniProt P42336, E545K); assay: Inhibition of PI3K-alpha E545K mutant
[13] = target: Phosphatidylinositol 4,5-bisphosphate 3-kinase catalytic subunit beta isoform (Homo sapiens, UniProt P42338); assay: Inhibition of PI3K-beta
[14] = test system: Mus musculus; assay: In vivo inhibition of mTORC1 in mouse bearing human MDA-MB-361 cells assessed as inhibition of S6K phosphorylation at 50 mg/kg, po; format: functional, organism-based; parameters: dose 50 mg/kg
[15] = target: Cytochrome P450 2D6 (Homo sapiens, UniProt P10635); assay: Inhibition of CYP2D6; format: ADME
[16] = target: Cytochrome P450 2C19 (Homo sapiens, UniProt P33261); assay: Inhibition of CYP2C19; format: ADME
[17] = test system: Mus musculus; assay: In vivo inhibition of mTORC1 in mouse bearing human MDA-MB-361 cells assessed as inhibition of S6 phosphorylation at 50 mg/kg, po; format: functional, organism-based; parameters: dose 50 mg/kg
[18] = test system: Mus musculus; assay: Toxicity in mouse assessed as weight loss at 10 mg/kg, po qd; format: organism-based; parameters: dose 10 mg/kg, route oral; conditions: in vivo
[19] = target: T4, Phosphatidylinositol 4,5-bisphosphate 3-kinase catalytic subunit delta isoform (Homo sapiens, UniProt O00329); assay: Inhibition of PI3K-delta
T4 sequence (O00329 whole entry): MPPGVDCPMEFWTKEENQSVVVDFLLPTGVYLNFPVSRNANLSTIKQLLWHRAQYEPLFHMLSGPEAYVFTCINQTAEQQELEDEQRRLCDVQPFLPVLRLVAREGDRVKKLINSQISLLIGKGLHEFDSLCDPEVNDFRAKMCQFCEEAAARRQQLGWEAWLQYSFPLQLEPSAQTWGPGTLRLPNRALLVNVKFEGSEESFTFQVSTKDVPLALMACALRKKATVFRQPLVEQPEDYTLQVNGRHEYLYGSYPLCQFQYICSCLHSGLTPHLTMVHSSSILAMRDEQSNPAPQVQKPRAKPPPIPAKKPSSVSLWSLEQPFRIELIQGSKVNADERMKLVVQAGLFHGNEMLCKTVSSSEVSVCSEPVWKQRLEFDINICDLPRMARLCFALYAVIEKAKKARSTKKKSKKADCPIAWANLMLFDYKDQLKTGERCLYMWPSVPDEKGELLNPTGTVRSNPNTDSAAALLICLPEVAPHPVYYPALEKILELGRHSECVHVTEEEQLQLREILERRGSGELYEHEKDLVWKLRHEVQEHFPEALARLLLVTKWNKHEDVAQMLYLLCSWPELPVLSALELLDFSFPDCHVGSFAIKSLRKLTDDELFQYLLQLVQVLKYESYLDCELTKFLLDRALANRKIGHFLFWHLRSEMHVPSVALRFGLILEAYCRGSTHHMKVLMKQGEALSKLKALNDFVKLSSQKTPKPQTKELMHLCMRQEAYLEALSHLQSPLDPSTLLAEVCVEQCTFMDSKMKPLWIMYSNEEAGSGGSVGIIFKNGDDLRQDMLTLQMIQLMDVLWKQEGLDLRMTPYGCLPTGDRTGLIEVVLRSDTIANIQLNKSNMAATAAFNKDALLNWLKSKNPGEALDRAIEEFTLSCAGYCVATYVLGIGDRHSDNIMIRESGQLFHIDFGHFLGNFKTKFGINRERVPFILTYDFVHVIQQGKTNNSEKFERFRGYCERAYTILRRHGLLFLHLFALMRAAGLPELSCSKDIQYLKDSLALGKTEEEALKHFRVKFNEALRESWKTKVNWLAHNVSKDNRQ

[20] = test system: Mus musculus; assay: In vivo inhibition of PI3K in mouse bearing human MDA-MB-361 cells assessed as inhibition of AKT phosphorylation at 50 mg/kg, po; format: functional, organism-based; parameters: dose 50 mg/kg
[21] = target: Cytochrome P450 3A4 (Homo sapiens, UniProt P08684); assay: Inhibition of CYP3A4; format: ADME
[22] = target: T5, Cytochrome P450 2A6 (Homo sapiens, UniProt P11509); assay: Inhibition of CYP2A6; format: ADME
T5 sequence (P11509 whole entry): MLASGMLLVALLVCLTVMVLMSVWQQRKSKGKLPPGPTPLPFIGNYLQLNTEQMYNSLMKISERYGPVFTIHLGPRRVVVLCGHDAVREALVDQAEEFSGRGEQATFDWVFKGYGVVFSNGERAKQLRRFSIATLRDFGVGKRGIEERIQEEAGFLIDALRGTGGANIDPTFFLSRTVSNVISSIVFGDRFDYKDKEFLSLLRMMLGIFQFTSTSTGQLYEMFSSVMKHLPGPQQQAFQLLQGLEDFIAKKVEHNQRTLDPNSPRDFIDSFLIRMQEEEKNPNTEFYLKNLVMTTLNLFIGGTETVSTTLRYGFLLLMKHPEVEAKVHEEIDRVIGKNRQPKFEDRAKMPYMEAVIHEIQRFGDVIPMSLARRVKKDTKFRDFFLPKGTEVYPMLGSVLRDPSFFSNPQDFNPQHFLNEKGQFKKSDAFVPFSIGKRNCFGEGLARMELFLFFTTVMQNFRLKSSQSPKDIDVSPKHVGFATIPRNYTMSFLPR

Phosphatidylinositol 4,5-bisphosphate 3-kinase catalytic subunit gamma isoform, sequence (P48736 whole entry, canonical isoform): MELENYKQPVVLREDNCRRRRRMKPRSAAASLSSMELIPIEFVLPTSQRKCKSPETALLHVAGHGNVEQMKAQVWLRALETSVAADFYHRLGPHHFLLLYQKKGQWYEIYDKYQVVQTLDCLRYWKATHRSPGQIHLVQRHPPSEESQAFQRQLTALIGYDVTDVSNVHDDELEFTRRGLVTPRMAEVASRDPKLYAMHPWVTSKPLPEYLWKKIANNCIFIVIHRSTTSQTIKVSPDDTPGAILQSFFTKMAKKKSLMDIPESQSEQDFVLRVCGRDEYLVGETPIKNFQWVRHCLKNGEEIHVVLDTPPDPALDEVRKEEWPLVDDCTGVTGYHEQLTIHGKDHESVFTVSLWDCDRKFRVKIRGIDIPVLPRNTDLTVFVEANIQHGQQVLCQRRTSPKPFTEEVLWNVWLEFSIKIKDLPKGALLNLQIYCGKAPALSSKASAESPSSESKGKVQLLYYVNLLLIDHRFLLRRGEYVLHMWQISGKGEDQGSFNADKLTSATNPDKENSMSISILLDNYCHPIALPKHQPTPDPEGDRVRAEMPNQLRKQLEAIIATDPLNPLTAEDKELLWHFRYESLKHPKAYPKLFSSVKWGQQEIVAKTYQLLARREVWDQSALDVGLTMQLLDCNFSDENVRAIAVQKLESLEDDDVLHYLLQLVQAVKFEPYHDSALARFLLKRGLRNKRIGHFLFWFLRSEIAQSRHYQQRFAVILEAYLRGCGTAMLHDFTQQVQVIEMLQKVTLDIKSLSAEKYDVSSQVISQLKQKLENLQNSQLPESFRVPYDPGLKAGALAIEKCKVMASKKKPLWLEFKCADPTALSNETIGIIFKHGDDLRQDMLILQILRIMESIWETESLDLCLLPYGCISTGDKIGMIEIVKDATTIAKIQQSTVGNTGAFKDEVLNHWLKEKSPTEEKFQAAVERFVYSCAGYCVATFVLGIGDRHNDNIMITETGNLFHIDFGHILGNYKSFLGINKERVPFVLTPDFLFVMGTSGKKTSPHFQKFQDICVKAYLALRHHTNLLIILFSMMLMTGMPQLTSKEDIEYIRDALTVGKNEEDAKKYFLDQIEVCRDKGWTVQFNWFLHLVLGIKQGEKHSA
Phosphatidylinositol 4,5-bisphosphate 3-kinase catalytic subunit alpha isoform (Homo sapiens, UniProt P42336), sequence (P42336 whole entry, canonical isoform): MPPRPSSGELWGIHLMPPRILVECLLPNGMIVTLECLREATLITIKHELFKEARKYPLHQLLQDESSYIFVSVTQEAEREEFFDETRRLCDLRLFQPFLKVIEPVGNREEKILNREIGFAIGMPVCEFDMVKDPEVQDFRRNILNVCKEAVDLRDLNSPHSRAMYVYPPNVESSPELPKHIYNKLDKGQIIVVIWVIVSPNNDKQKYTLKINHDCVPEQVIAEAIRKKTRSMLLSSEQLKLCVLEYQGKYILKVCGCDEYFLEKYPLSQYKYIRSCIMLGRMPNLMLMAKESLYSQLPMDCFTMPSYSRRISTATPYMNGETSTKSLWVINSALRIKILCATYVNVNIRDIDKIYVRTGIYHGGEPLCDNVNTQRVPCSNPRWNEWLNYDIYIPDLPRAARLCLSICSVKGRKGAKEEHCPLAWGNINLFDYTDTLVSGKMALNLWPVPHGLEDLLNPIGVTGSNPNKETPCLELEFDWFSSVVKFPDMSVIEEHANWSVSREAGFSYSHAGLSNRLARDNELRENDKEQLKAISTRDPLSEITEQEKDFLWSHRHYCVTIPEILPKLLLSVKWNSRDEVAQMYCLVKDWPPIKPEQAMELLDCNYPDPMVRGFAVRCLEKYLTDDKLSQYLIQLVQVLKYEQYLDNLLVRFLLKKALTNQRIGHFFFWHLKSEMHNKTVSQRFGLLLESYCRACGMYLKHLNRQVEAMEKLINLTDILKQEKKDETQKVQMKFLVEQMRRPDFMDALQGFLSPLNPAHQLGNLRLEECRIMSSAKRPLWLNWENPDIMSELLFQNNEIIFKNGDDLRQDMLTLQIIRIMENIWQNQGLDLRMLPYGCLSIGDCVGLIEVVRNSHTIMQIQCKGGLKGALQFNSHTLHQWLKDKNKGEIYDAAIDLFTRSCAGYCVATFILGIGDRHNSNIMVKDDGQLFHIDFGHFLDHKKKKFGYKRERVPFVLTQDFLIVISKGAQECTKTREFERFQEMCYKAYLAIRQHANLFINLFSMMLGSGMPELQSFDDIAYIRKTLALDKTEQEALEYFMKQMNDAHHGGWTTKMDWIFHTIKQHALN
Phosphatidylinositol 4,5-bisphosphate 3-kinase catalytic subunit alpha isoform (Homo sapiens, UniProt P42336, E545K), sequence (P42336 whole entry E545K, canonical isoform): as the sequence (P42336 whole entry, canonical isoform) above, with E545K counted along it
Cytochrome P450 2C19, sequence (P33261 whole entry): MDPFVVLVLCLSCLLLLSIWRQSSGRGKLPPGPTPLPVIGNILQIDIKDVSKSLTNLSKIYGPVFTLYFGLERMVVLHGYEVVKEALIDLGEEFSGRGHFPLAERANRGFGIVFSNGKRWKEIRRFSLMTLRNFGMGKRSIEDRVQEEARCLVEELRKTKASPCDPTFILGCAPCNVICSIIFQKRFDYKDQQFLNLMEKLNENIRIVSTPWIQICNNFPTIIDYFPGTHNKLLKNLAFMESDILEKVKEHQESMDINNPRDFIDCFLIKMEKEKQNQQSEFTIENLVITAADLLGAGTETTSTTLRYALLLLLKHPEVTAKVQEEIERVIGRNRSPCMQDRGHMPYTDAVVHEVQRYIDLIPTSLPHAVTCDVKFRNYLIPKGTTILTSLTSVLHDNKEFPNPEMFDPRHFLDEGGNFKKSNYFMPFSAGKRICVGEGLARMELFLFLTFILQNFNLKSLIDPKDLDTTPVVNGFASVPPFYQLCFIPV
Cytochrome P450 2D6, sequence (P10635 whole entry): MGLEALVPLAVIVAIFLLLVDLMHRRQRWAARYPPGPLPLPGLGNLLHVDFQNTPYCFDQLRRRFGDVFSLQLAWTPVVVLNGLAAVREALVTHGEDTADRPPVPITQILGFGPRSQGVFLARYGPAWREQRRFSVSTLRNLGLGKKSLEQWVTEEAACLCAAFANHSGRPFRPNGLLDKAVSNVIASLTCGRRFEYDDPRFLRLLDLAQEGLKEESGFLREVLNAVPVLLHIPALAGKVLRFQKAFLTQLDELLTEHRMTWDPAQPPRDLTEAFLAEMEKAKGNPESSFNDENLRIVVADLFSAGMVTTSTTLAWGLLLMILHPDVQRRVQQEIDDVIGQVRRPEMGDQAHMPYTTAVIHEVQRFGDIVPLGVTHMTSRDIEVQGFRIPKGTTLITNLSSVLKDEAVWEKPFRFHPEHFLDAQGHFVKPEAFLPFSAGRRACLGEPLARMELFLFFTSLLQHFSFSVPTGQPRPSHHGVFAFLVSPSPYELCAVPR
Phosphatidylinositol 4,5-bisphosphate 3-kinase catalytic subunit beta isoform, sequence (P42338 whole entry, canonical isoform): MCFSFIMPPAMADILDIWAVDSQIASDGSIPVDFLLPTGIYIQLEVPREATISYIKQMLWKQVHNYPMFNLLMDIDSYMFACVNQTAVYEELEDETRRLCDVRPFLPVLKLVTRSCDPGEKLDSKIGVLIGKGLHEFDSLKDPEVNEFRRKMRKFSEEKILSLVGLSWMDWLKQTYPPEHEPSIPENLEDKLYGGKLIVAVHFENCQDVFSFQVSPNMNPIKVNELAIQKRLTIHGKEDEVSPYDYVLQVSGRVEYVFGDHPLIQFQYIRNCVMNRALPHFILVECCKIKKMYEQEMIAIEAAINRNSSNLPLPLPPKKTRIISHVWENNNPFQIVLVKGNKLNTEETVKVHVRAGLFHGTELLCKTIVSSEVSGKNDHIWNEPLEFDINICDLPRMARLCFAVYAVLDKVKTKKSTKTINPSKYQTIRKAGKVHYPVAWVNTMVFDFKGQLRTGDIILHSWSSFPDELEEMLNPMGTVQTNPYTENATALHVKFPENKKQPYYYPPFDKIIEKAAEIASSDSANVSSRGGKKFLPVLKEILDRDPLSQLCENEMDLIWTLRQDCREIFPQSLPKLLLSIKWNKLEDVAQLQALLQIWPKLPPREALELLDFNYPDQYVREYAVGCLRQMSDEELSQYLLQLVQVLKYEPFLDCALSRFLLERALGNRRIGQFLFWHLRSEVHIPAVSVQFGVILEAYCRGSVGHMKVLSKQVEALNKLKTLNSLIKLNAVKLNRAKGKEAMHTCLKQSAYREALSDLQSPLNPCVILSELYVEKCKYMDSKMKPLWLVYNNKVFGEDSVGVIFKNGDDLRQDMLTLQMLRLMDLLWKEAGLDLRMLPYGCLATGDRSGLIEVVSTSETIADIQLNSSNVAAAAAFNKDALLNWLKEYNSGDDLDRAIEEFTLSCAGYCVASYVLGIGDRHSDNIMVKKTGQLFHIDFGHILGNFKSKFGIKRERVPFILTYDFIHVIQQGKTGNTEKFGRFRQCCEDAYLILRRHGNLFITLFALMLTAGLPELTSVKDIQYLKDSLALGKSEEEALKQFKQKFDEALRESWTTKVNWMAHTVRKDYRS
Cytochrome P450 3A4, sequence (P08684 whole entry): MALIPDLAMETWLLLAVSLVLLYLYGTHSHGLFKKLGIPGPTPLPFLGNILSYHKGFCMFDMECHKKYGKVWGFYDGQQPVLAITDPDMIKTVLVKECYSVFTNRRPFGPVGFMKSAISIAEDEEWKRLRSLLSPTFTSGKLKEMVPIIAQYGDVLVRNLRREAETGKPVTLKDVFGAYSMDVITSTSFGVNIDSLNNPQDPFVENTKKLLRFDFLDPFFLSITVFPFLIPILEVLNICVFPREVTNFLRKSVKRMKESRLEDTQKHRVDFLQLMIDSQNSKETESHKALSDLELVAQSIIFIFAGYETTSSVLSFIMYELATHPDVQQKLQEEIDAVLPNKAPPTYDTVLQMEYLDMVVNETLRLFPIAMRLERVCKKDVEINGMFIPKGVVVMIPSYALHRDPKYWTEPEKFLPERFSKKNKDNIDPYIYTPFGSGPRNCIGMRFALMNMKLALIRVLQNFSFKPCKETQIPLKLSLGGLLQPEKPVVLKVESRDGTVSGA

Row | Compound | IC50 [1] | IC50 [2] | IC50 [3] | IC50 [4] | IC50 [5] | further results
1 | O=C(Nc1ccc(-c2nc(N3CCOCC3)nc(N3C4CCC3COC4)n2)cc1)Nc1ccc(-c2cccnc2)nc1 | 56 nM | 40 nM | 45 nM | 3.45 nM | 44 nM | 
2 | O=C(Nc1ccc(-c2nc(N3CCOCC3)nc(N3C4CCC3COC4)n2)cc1)Nc1cncnc1 | 110 nM | 84 nM | 138 nM |  | 240 nM | 
3 | N#Cc1ccc(NC(=O)Nc2ccc(-c3nc(N4CCOCC4)nc(N4C5CCC4COC5)n3)cc2)cc1 | 345 nM |  | 3600 nM | 3.3 nM |  | 
4 | O=C(Nc1ccncc1)Nc1ccc(-c2nc(N3CCOCC3)nc(N3C4CCC3COC4)n2)cc1 [PKI-179] | 22 nM |  | 29 nM | 0.42 nM | 74 nM | IC50 [6]: > 30 µM; Activity [7]: Active; inhibition [8]: Active; IC50 [9]: > 30 µM; IC50 [10]: 3 µM; IC50 [11]: 11 nM; IC50 [12]: 14 nM; IC50 [13]: 24 nM; inhibition [14]: Active; IC50 [15]: > 30 µM; IC50 [16]: > 30 µM; inhibition [17]: Active; Activity [18]: Non-toxic; IC50 [19]: 77 nM; inhibition [20]: Active; IC50 [21]: > 30 µM; IC50 [22]: > 30 µM
5 | CN(C)c1ccc(NC(=O)Nc2ccc(-c3nc(N4CCOCC4)nc(N4C5CCC4COC5)n3)cc2)cc1 | > 1000 nM | 3.5 nM | > 1000 nM | 13.5 nM | 717 nM | 
6 | CN(C)CCOc1ccc(NC(=O)Nc2ccc(-c3nc(N4CCOCC4)nc(N4C5CCC4COC5)n3)cc2)cc1 | < 30 nM | 14 nM | < 30 nM |  |  | 
7 | O=C(Nc1ccc(CO)cc1)Nc1ccc(-c2nc(N3CCOCC3)nc(N3C4CCC3COC4)n2)cc1 | 15 nM |  | 28 nM |  |  | 
8 | O=C(Nc1ccc(-c2nc(N3CCOCC3)nc(N3C4CCC3COC4)n2)cc1)Nc1ccnnc1 | 36 nM | 28 nM | 47 nM |  |  | 
9 | O=C(Nc1ccc(-c2nc(N3CCOCC3)nc(N3C4CCC3COC4)n2)cc1)Nc1ccnc(Cl)c1 | 93 nM | 23 nM | 118 nM |  |  | 
